Measured values from patent US6984649B1, “Pyridine derivatives” (Bayer Aktiengesellschaft, priority 2000, dated 2006).
Where a name gives a salt, the structure may show the parent alone.

Molecular target: T1, human IKK-β (Homo sapiens, UniProt O14920)
T1 construct: A cDNA fragment encoding human IKK-β open reading frame was generated by PCR; His tag (from pcDNA3.1/His C); made in house; host or cells: Sf21 insect cells (baculovirus); substrate made in E. coli
T1 sequence (O14920 1-756): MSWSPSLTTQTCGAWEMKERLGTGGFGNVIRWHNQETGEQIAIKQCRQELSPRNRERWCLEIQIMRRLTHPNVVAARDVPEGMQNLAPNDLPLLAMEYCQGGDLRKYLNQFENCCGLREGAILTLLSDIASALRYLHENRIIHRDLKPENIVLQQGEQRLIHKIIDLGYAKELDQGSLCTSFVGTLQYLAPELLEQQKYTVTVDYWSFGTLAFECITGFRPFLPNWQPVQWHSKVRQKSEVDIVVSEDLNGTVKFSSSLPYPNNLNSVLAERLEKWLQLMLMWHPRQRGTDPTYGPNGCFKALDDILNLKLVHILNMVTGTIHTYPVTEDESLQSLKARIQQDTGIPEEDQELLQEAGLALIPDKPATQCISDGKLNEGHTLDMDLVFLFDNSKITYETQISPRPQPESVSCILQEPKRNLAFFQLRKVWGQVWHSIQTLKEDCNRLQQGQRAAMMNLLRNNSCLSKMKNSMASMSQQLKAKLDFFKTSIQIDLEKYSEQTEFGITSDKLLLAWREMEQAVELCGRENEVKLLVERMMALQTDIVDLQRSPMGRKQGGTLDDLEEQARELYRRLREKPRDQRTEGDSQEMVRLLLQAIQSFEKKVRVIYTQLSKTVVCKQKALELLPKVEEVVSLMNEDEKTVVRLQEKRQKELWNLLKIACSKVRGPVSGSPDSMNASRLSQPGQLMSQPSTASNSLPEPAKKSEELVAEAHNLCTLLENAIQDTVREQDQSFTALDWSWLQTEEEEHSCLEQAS
Assay: IKK-β kinase inhibitory assay
Format: biochemical
Conditions: compounds as yielded by solid phase synthesis, purity about 40 to 90%, read-out: In vitro activity grade (In vitro IC50)
Description: [IKK-β Kinase Inhibitory Assay]
(1) Preparation of IKK-β Kinase Protein.
• A cDNA fragment encoding human IKK-β open reading frame was generated by PCR with the use of a pair of primers designed from the published sequence (Woronicz J D et al. (1997) Science 278, 866-869). A template was obtained from Quickclone cDNA (Clontech) using Elongase™ Amplification kit (Life Technologies). The DNA fragments generated by PCR were gel-purified and subcloned into pBluescript. The cDNA fragment cloned in pBluescript was inserted into pcDNA3.1/His C KpnI/NotI, and transferred into pVL1393 SmaI/XbaI (Pharmingen) to construct a baculovirus transfer vector. Then the vector, together with the linearized baculovirus (BaculoGold™, Pharmingen) was used to transfect Sf21 cells (Invitrogen, San Diego, Calif.). Generated recombinant baculovirus was cloned and amplified in Sf21 cells, grown in TNM-FH insect cell medium (Life Technologies, Inc.) supplemented with 10% FCS, […] Gentamycin, 0.1% Pluronic F-68 (Life Technologies, Inc.) as suspension culture (200 ml in 1 L Erlenmeyer flask; 27° C.; 130 rpm). Sf21 cells were infected with this amplified virus with a multiplicity of infection of 5 following standard protocols (Crossen R, Gruenwald S (1997) Baculovirus Expression Vector System Instruction Manual, Pharmingen Corporation) and harvested 48 hrs later. The cells were lysed to obtain the produced chimeric protein of IKK-β kinase fused by histidine (His-tagged IKK-beta). (2) The Preparation of Purified GST-IκBα Fusion Proteins • An expression vector containing the nucleotide sequence encoding fusion protein of GST with amino acid residues 1 to 54 of IκBα under the control of an IPTG-inducible promoter was constructed. The expression vector was introduced in E. coli and the transformant was cultured and lysed to obtain a GST-IκBα fusion protein. Then the resulting GST-IκBα fusion protein was purified and biotinated for kinase assay. (3) The Measurement of IKK-β Kinase Activity • The 96-well format kinase assay of IKK-β were performed to test the inhibitory activity of the compounds of the present invention. First, 5 μl of a test compound was put in the presence of 2.5% dimethyl sulfoxide (DMSO) in each well in a U-bottomed 96-well plate (Falcon). For control wells of background (BG) and total phosphorylation (TP), 5 μl of 2.5% DMSO was put. Recombinant IKK-β (final 0.6 μg/ml) and bio-GST-IκBα (1-54) (final 0.2 μM) were diluted in 25 μl of 2×kinase buffer β (40 mM Tris-HCl, pH 7.6, 40 mM MgCl2, 40 mM β-glycerophosphate, 40 mM p-nitrophenylphosphate, 2 mM EDTA, 40 mM creatine phosphate, 2 mM DTT, 2 mM Na3VO4, 0.2 mg/ml BSA and 0.8 mM phenylmethylsulfonyl fluoride) and transferred to the 96-well plate. Bio-GST-IκBα (1-54) in 25 μl of 2×kinase buffer β without IKK-β was transferred to BG wells. Then 20 μl of 12.5 μM ATP, 62.5 μCi/ml [γ-^33P] ATP (Amersham Pharmacia Biotech) was added and the resulting mixture was incubated for 2 hrs at room temperature. The kinase reactions were terminated by the addition of 150 μl of termination buffer (100 mM EDTA, 1 mg/ml BSA, 0.2 mg NaN3). One hundred and fifty μl of the sample were transferred to a streptavidin-coated, white MTP (Steffens Biotechniche Analysen GmbH #08114E14.FWD) to capture the biotinylated substrates. After 1 hr of incubation, non-bound radioactivity was eliminated by washing the wells five times with 300 μl of washing buffer including 0.9% NaCl and 0.1% (w/v) Tween-20 with the use of a MW-96 plate washer (BioTec). The bound radioactivity was determined after the addition of 170 μl MicroScint-PS scintillation cocktail (Packard) using a TopCount scintillation counter. [Syk Tyrosine Kinase Inhibitory Assay for Selectivity] (1) Preparation of Syk Protein • A cDNA fragment encoding human Syk openreading frame was cloned from total RNA of human Burkitt's lymphoma B cell lines, Raji (American Type Culture Collection), with the use of RT-PCR method.

Structure (SMILES) | IC50 [nM]
N#Cc1c(C2CCCNC2)cc(-c2c(O)cccc2OCc2ccccc2)nc1N (stereo not shown) [Example 2-2, 2-amino-6-[2-(benzyloxy)-6-hydroxyphenyl]-4-(3-piperidinyl)nicotinonitrile hydrochloride] | < 500
N#Cc1c(C2CCCNC2)cc(-c2sccc2O)nc1N (stereo not shown) [Example 1-7, 2-amino-6-(3-hydroxy-2-thienyl)-4-(3-piperidinyl)nicotinonitrile hydrobromide] | < 500
CC1(c2cc(-c3ccccc3O)nc(N)c2C#N)CCCNC1 (stereo not shown) [Example 1-3, 2-amino-6-(2-hydroxyphenyl)-4-(3-methylpiperidin-3-yl)-nicotinonitrile hydrochloride] | 500 to 2000
N#Cc1c(C2=CCCNC2)cc(-c2ccccc2O)nc1N [Example 1-9, 2′-amino-6′-(2-hydroxyphenyl)-1,2,5,6-tetrahydro-3,4′-bipyridine-3′-carbonitrile hydrochloride] | < 500
N#Cc1c(N)nc(-c2ccccc2O)c(F)c1C1CCCNC1 (stereo not shown) [Example 1-4, 2-amino-5-fluoro-6-(2-hydroxyphenyl)-4-(3-piperidinyl)-nicotinonitrile trifluoroacetate] | < 500
NC(=O)c1c(C2CCCNC2)cc(-c2ccccc2O)nc1N (stereo not shown) [Example 7-1, 2-amino-6-(2-hydroxyphenyl)-4-(3-piperidinyl)nicotinamide hydrochloride] | < 500
N#Cc1c(C2CCNCC2)cc(-c2c(O)cccc2OCC2CC2)nc1N [Example 2-3, hydrochloride] | < 500
N#Cc1c(C2CCNC2)cc(-c2ccccc2O)nc1N (stereo not shown) [Example 1-2, 2-amino-6-(2-hydroxyphenyl)-4-(3-pirrolidinyl)nicotinonitrile trifluoroacetate] | < 500
N#Cc1c(C2CCCNC2)cc(-c2c(O)cccc2O)nc1N (stereo not shown) [Example 2-1, 2-amino-6-(2,6-dihydroxyphenyl)-4-(3-piperidinyl)nicotinonitrile hydrochloride] | < 500
N#Cc1c(C2CCCC(C(=O)O)C2)cc(-c2ccccc2O)nc1N (stereo not shown) [Example 1-8, 3-[2-amino-3-cyano-6-(2-hydroxyphenyl)-4-pyridinyl]cyclohexanecarboxylic acid] | 500 to 2000
O=c1[nH]c2nc(-c3ccccc3O)cc(C3CCCNC3)c2c(=O)n1-c1ccccc1 (stereo not shown) [Example 7-3, 7-(2-hydroxyphenyl)-3-phenyl-5-(3-piperidinyl)pyrido[2,3-d]pyrimidine-2,4(1H,3H)-dione hydrochloride] | 500 to 2000
Nc1nc(-c2ccccc2O)cc(C2CCCNC2)c1CO (stereo not shown) [Example 11-1, 2-[6-amino-5-(hydroxymethyl)-4-(3-piperidinyl)-2-pyridinyl]phenol hydrochloride] | < 500

Other lines, results leading:

IC50 [nM] | Structure (SMILES)
< 500 | Nc1nc(-c2c(O)cccc2F)cc(C2CCCNC2)c1CO (stereo not shown) [Example 11-2, 2-[6-amino-5-(hydroxymethyl)-4-(3-piperidinyl)-2-pyridinyl]-3-fluorophenol hydrochloride]
< 500 | O=C(Nc1cc2c(C3CCCNC3)cc(-c3c(O)cccc3OCC3CC3)nc2[nH]c1=O)c1ccccc1 (stereo not shown) [Example 29-2, N-[7-[2-(cyclopropylmethoxy)-6-hydroxyphenyl]-2-oxo-5-(3-piperidinyl)-1,2-dihydro-1,8-naphthyridin-3-yl]benzamide hydrochloride]
< 500 | Nc1nc(-c2c(O)cccc2OCC2CC2)cc(C2CCCNC2)c1CNC(=O)NC1CCCCC1 (stereo not shown) [Example 23-3, N-{[2-amino-6-[2-(cyclopropylmethoxy)-6-hydroxyphenyl]-4-(3-piperidinyl)-3-pyridinyl]methyl}-N′-cyclohexylurea hydrochloride]
< 500 | O=C1Nc2nc(-c3ccccc3O)cc(C3=CCCNC3)c2CO1 [Example 18-6]
< 500 | CC(=O)NCc1c(C2CCCNC2)cc(-c2c(O)cccc2OCC2CC2)nc1N (stereo not shown) [Example 23-1, N-{[2-amino-6-[2-(cyclopropylmethoxy)-6-hydroxyphenyl]-4-(3-piperidinyl)-3-pyridinyl]methyl}acetamide hydrochoride]
2000 to 10000 | Nc1ncnc2nc(-c3c(O)cccc3OCC3CC3)cc(C3CCCNC3)c12 (stereo not shown) [Example 32-1, 2-[4-amino-5-(3-piperidinyl)pyrido[2,3-d]pyrimidin-7-yl]-3-(cyclopropylmethoxy)phenol hydrochloride]
< 500 | Nc1nc(-c2c(O)cccc2OCC2CC2)cc(C2CCCNC2)c1CSc1ccccc1 (stereo not shown) [Example 21-1, 2-[6-amino-5-[(phenylsulfanyl)methyl]-4-(3-piperidinyl)-2-pyridinyl]-3-(cyclopropylmethoxy)phenol hydrochloride]
< 500 | CC(=O)N1Cc2c(C3CCCNC3)cc(-c3c(O)cccc3OCC3CC3)nc2NC1=O (stereo not shown) [Example 24-1, 3-acetyl-7-[2-(cyclopropylmethoxy)-6-hydroxyphenyl]-5-(3-piperidinyl)-3,4-dihydropyrido[2,3-d]pyrimidin-2(1H)-one hydrochloride]
< 500 | Nc1nc(-c2ccccc2O)cc2c1CNC2Cc1ccccc1 (stereo in doubt) [Example 20-3, 2-[(1S)-4-amino-1-benzyl-2,3-dihydro-1H-pyrrolo[3,4-c]pyridin-6-yl]phenol hydrochloride]
< 500 | NC(Cc1ccccc1)c1cc(-c2ccccc2O)nc2c1COC(=O)N2 (stereo not shown) [Example 18-4/18-5, 5-(1-Amino-2-phenyl-ethyl)-7-(2-hydroxy-phenyl)-1,4-dihydro-pyrido[2,3-d][1,3]oxazin-2-one hydrochloride]
500 to 2000 | N#Cc1c(N2CCC(C(N)=O)CC2)cc(-c2ccccc2O)nc1N [Example 34-2, 1-[2-amino-3-cyano-6-(2-hydroxyphenyl)-4-pyridinyl]-4-piperidinecarboxamide]
< 500 | N#Cc1c(NC2CCCNC2)cc(-c2ccccc2O)nc1N (stereo not shown) [Example 34-4, 2-amino-6-(2-hydroxyphenyl)-4-(3-piperidinylamino)nicotinonitrile hydrochloride]
< 500 | CC(=O)c1c(C2CCCNC2)cc(-c2ccccc2O)nc1N (stereo not shown) [Example 15-3, 1-[2-amino-6-(2-hydroxyphenyl)4-(3-piperidinyl)-3-pyridinyl]ethanone hydrochloride]
